The record followed here is paper PMC5400099, “5-Hydroxyethyl-3-tetradecanoyltetramic acid represents a novel treatment for intravascular catheter infections due to Staphylococcus aureus” (Journal of Antimicrobial Chemotherapy, 2016).

Structures are written as SMILES. In brackets after ≈: the same amount, converted by molar mass. Several values for one entry are separate records, joined by “and”; a condition that tells them apart may be missing. Equal entries are not always repeated. Entries after “also recorded” stand apart in the source; their conditions may differ.

In one data set the test system is S. aureus strain BH48. In words: MIC by broth microdilution (CLSI), strain BH48. The class given is cell-based. To be noted: Staphylococcus aureus; BH48 (MSSA), Mueller–Hinton broth. On the procedure: (§1) Community-acquired MRSA (CA-MRSA) strain USA300, its isogenic agr mutant,[17] the hospital-acquired MRSA (HA-MRSA) strain BH1CC,[18] the HA-MSSA strain BH48[19] and the MSSA strain SH1000[20] were cultured in Mueller–Hinton broth for susceptibility testing or in RPMI-1640 (Gibco) for biofilm formation. For the rat jugular vein catheter infection model, the S. aureus strain USA300 (LAC) lux[21] was used.
(§2) 5HE-C14-TMA and C14-TOA were synthesized as described previously[9] and C14-TTA as described in the Supplementary data available at JAC Online. Stock solutions of the compounds in DMSO at 10–50 mM were further diluted into tissue culture media or sodium chloride for the in vivo experiments. A DMSO solvent control was used in all in vitro experiments. The following antibiotics were used: vancomycin (Vancocin; Flynn Pharma Ltd., Republic of Ireland), daptomycin (Cubicin; Novartis, UK), gentamicin (Hospira, UK) and tigecycline (Tygacil; Pfizer Inc.). MICs were determined by broth microdilution in Mueller–Hinton broth, as recommended by the CLSI.
Background: In broth dilution the organism is exposed to a series of concentrations in liquid medium.

Data set [1] relates to MRSA (USA300 JE2 and BH1CC) and MSSA (SH1000 and BH48) strains. In words: MIC by broth microdilution, MRSA and MSSA strains. The class given is cell-based, Staphylococcus aureus. To be noted: MRSA and MSSA strains investigated. The procedure:
as §1, §2

A further data set deals with S. aureus USA300 LAC. In words: Bactericidal activity (time-kill, viable counts). The class given is cell-based, Staphylococcus aureus. To be noted: 8 × MIC. The procedure:
S. aureus USA300 LAC was grown overnight in LB medium, diluted 250-fold and grown to an OD600 0.5. Cells were diluted to 1 × 10^6 per mL in challenge medium (LB plus 5HE-C14-TMA, C14-TOA or C14-TTA at 8 × MIC). Samples were removed and viable counts determined at 30 min intervals for the first hour followed by hourly sampling. The CLSI defines a compound as bactericidal if it reduces the starting inoculum colony count by at least 99.9% (3-logs).

Data set [2] in a line: MTT cell viability assay, HUVEC. The class given is cell-based, human. To be noted: human, primary HUVECs (umbilical vein endothelial cells); HUVEC, MTT, 24 h. On the procedure:
(§3) Human keratinocyte (HaCaT) cells were cultured in DMEM supplemented with 10% (v/v) FBS. Primary human umbilical vein endothelial cells (HUVECs) were cultured in EGM™-2 Bulletkit (Lonza) medium. HaCaT and HUVECs were harvested using TrypLE^TM Express (Gibco). Cells were seeded in microtitre plates at 3 × 10^5 cells/mL and incubated for 24 h at 37 °C with an antimicrobial compound ([…]) or Triton X100 at 1% (v/v). After removing the medium, cells were incubated with 500 mg/L MTT (Sigma-Aldrich) for 4 h. The crystals formed were solubilized with DMSO. Absorbance was recorded at 560 nm and the CC50 was determined.
On the technique in general: Tetrazolium assays rely on reduction of a dye to a coloured formazan, in cell work by metabolically active cells.

The test system of data set [3] is Primary human umbilical vein endothelial cells (HUVECs). In words: MTT cell viability assay, HUVEC. It counts as cell-based. To be noted: HUVECs. The procedure: as §3
Data set [4] relates to S. aureus USA300lux biofilm. In words: Rat IVC (jugular vein catheter) biofilm infection model. It counts as in vivo. To be noted: CLS 512 mg/L, 40 μL daily for 5 days. The procedure: Rats (male, Sprague–Dawley) were pre-implanted with jugular vein polyurethane catheters (13.5 cm long, outside diameter 1.1 mm, inside diameter 0.6 mm) (Charles River, UK). Daily flushing was performed with 150 μL sodium chloride [0.1% (w/v)] following introduction of 40 μL heparin (100 IU), sodium chloride 0.1% (w/v) within the lumen. IVC-biofilm infection was developed as previously reported.[24–26] Catheters were inoculated with 40 μL S. aureus USA300lux suspension at 1 × 10^4 cfu/mL ‘locked’ within the catheter for 1 day. Intravenous vancomycin (50 mg/kg) was administered twice daily at 12 h intervals to prevent systemic spread of infection. CLS consisting of 5HE-C14-TMA (40 μL) at 512 mg/L in sodium chloride 0.1% (w/v) was administered daily for 5 days upon development of infection. After 5 days of treatment, catheters were removed and luminescence imaged using a Perkin Elmer IVIS Spectrum instrument (exposure, 20 s; binning: 4, f1). Bacteria were harvested from the catheters by treatment with TrypLE^TM Express (Gibco) and washing prior to determining viable counts.

`CCCCCCCCCCCCCC(=O)C1=C(O)N[C@@H](CCO)C1=O` [5HE-C14-TMA, 5-hydroxyethyl-3-tetradecanoyltetramic acid]: the MIC against S. aureus strain BH48 was 6.25 µM and 2 µg/mL; in data set [1], 2 µg/mL (≈ 5.66 µM); in data set [1] (Staphylococcus aureus), 2 to 4 µg/mL (≈ 5.66 to 11.3 µM). In the data set on S. aureus USA300 LAC (USA300, over 30 min), this compound returned a Reduction of viability of 3 logs. Moreover, the “Bactericidal activity (CLSI: at least 3-log reduction)” value in the data set with S. aureus USA300 LAC (planktonic USA300) is “bactericidal”. Also, the CC50 at 24 h in data set [2] was 19 µM and 7 µg/mL. Also, the “Selectivity index (SI, CC50/MIC)” value in data set [3] came to 3.5. Moreover, the “Catheter biofilm after CLS treatment” value in data set [4] is “effectively eradicated; also recorded: highly effective in the eradication of MRSA biofilm”.

Broadly, the MIC is the least concentration at which growth counts as inhibited. As a reminder, the CC50 is the concentration at which the toxic effect on the cells reaches its halfway point.
